Values quoted from earlier work, collected in patent publication US9968555B2, “Liposomal formulations that form drug nanocrystals after freeze-thaw” (ARADIGM CORPORATION, priority 2014, dated 2018).
Values after ≈ are worked out from the molar mass of the structure shown.

System: M. avium

O=C(O)c1cn(C2CC2)c2cc(N3CCNCC3)c(F)cc2c1=O [ciprofloxacin]
minimum inhibitory concentration (MIC): 5 µg/mL (≈ 15.1 µM)
